Measured values taken from patent US8258114B2, “Modulation of glucose-6-phosphatase translocase expression” (Isis Pharmaceuticals, Inc., priority 2004, dated 2012).
Like-named read-outs stand apart in the source and are kept apart here.

What was measured:
[1] = system: rat glucose-6-phosphatase translocase mRNA; assay: Reduction of glucose-6-phosphatase translocase mRNA in liver or kidney of ZDF rats (Table 15); assay type: in vivo; conditions: Rattus norvegicus, rosiglitazone alone 3 mg/kg daily in food
Procedure: Saline-injected animals served as a control treatment group. At the end of the treatment period, animals were sacrificed and target reduction in liver and kidney were measured by real-time PCR as described in other examples herein. […] For example, the following primer-probe set was designed to hybridize to rat glucose-6-phosphatase translocase sequences cited in Table 1: Forward primer: [NT] (incorporated herein as SEQ ID NO: 339) Reverse primer: [NT] (incorporated herein as SEQ ID NO: 340) PCR probe: […] (incorporated herein as SEQ ID NO: 341), where FAM is the fluorescent dye and TAMRA is the quencher dye.

[2] = system: catalytic subunit of glucose-6-phosphatase (G6PC) mRNA; assay: Reduction of catalytic subunit of glucose-6-phosphatase (G6PC) mRNA in liver or kidney of ZDF rats (Table 15); assay type: in vivo, rat; conditions: Rattus norvegicus, rosiglitazone alone 3 mg/kg daily in food
Procedure: (§1) Saline-injected animals served as a control treatment group.
At the end of the treatment period, animals were sacrificed and target reduction in liver and kidney were measured by real-time PCR as described in other examples herein. Also measured were reductions in the catalytic subunit of glucose-6-phosphatase (G6PC) using a primer-probe set designed to hybridize to that mRNA. For example, the following primer-probe set was designed to hybridize to rat glucose-6-phosphatase translocase sequences cited in Table 1:
Results for each treatment group are shown in Table 15 as the average percent reduction in glucose-6-phosphatase translocase levels or in G6PC as compared to saline treated control.

[3] = Plasma glucose levels of ZDF rats, alone or in combination with rosiglitazone (Table 16); assay type: in vivo, rat; conditions: rosiglitazone alone 3 mg/kg daily
Procedure: as §1
Plasma glucose levels were evaluated at the beginning of the study (Wk 0), during the first week of treatment (Wk 1), during the third week of treatment (Wk 3), and during the fifth week of treatment (Wk 5).

[4] = system: aged Zucker fa/fa rats; assay: Oral glucose tolerance test in ZDF rats (Table 17); assay type: in vivo, rat; conditions: week 3, rosiglitazone alone 3 mg/kg daily
Procedure: as §1
To further evaluate the effects of ISIS 366228 alone or in combination with rosiglitazone, oral glucose tolerance tests were performed during the third week of treatment. To provide a baseline glucose level, fasted blood glucose levels were measured before the challenge. Glucose was administered by oral gavage via an 18 gauge gavage needle at a dose of 1 g/kg. Plasma glucose levels were measured for 15, 30, 60, 90, and 120 minutes post-challenge, using a glucose analyzer (for example, an Ascencia Glucometer Elite XL, Bayer, Tarrytown, N.Y.).

[5] = Plasma lipids (cholesterol, triglycerides, free fatty acids) in ZDF rats (Table 21); assay type: in vivo, rat
Procedure: as §1
To further assess the physiological effects resulting from inhibition of target mRNA with antisense oligonucleotide alone or in combination with rosiglitazone, the rats were evaluated throughout the treatment period for plasma free fatty acids, plasma cholesterol, and plasma triglyceride levels. Free fatty acids, triglycerides and cholesterol were measured by routine clinical analyzer instruments (e.g. Olympus Clinical Analyzer, Melville, N.Y.). Glucose levels were measured using a glucose analyzer, for example a YSI glucose analyzer (YSI Scientific, Yellow Springs, Ohio).

[6] = Body weights of ZDF rats (Table 18); conditions: for Body weight: rosiglitazone alone 3 mg/kg daily
[7] = Liver transaminases ALT and AST in ZDF rats; conditions: week 5
Procedure: (§2) Male Zucker fa/fa rats, about 17 to 18 weeks of age, purchased from Charles River Laboratories (Wilmington, Mass.), are maintained on a normal rodent diet. Animals are placed into treatment groups of 8 animals each. […] Another treatment group received the food-administered daily doses of 3 mg/kg of rosiglitazone alone. Saline-injected animals served as a control treatment group.
The liver transaminases, ALT and AST, were measured throughout the study.

[8] = Body fat percentage by MRI in Zucker rats (Table 19); conditions: for % Fat: MRI, rosiglitazone alone 3 mg/kg daily
Procedure: as §2
Also monitored throughout the study was body composition. Baseline body composition was measured by MRI prior to the start of treatment (BL). Body composition was also measured during week 3 (Wk 3) and during week 5 (Wk 5) of treatment.

[9] = Tissue weights (kidney, spleen, liver, fat pad) of ZDF rats (Table 20); conditions: end of study, rosiglitazone alone
Procedure: Male Zucker fa/fa rats, about 17 to 18 weeks of age, purchased from Charles River Laboratories (Wilmington, Mass.), are maintained on a normal rodent diet. Animals are placed into treatment groups of 8 animals each. One treatment group was dosed subcutaneously twice weekly with 12.5 mg/kg of ISIS 366228 (SEQ ID NO: 203). Another treatment group was dosed twice weekly with 25 mg/kg of ISIS 366228. Other treatment groups were dosed with 12.5 mg/kg or 25 mg/kg ISIS 366228 twice weekly in combination with daily 3 mg/kg doses of rosiglitazone (Rosi) administered in powdered food. Another treatment group received the food-administered daily doses of 3 mg/kg of rosiglitazone alone. Saline-injected animals served as a control treatment group.
Tissue weights were also determined at the end of the study.

Structure (SMILES): CN(CCOc1ccc(CC2SC(=O)NC2=O)cc1)c1ccccn1 (stereo not shown) [Rosiglitazone, rosiglitazone, reference compound]
- inhibition at 3 mg/kg ([1]; read-out: % Inhibition of glucose-6-phosphatase translocase, Kidney): 0%
- inhibition at 3 mg/kg ([1]; read-out: % Inhibition of glucose-6-phosphatase translocase, Liver): 46%
- inhibition at 3 mg/kg ([2]; read-out: % Inhibition of G6PC, Kidney): 5%
- inhibition at 3 mg/kg ([2]; read-out: % Inhibition of G6PC, Liver): 63%
- Plasma glucose ([3]; Wk 0): 570 mg/dL
- Plasma glucose ([3]; Wk 1): 462 mg/dL
- Plasma glucose ([3]; Wk 3): 487 mg/dL
- Plasma glucose ([3]; Wk 5): 498 mg/dL
- plasma glucose, OGTT ([4]; 0 min (fasted)): 251 mg/dL
- plasma glucose, OGTT ([4]; 15 min): 429 mg/dL
- plasma glucose, OGTT ([4]; 30 min): 490 mg/dL
- plasma glucose, OGTT ([4]; 60 min): 417 mg/dL
- plasma glucose, OGTT ([4]; 90 min): 409 mg/dL
- plasma glucose, OGTT ([4]; 120 min): 384 mg/dL
- plasma cholesterol (CHOL) ([5]; Wk 0, rosiglitazone alone): 202 mg/dL
- plasma triglycerides (TRIG) ([5]; Wk 0, rosiglitazone alone): 478 mg/dL
- plasma cholesterol (CHOL) ([5]; Wk 1, rosiglitazone alone): 217 mg/dL
- plasma triglycerides (TRIG) ([5]; Wk 1, rosiglitazone alone): 300 mg/dL
- plasma cholesterol (CHOL) ([5]; Wk 3, rosiglitazone alone): 220 mg/dL
- plasma triglycerides (TRIG) ([5]; Wk 3, rosiglitazone alone): 327 mg/dL
- plasma cholesterol (CHOL) ([5]; Wk 5, rosiglitazone alone): 234 mg/dL
- plasma triglycerides (TRIG) ([5]; Wk 5, rosiglitazone alone): 384 mg/dL
- body weight (in words) [6]: associated with increased body weight
- Body weight ([6]; Wk 0): 404 g
- Body weight ([6]; Wk 1): 422 g
- Body weight ([6]; Wk 2): 444 g
- Body weight ([6]; Wk 3): 453 g
- Body weight ([6]; Wk 4): 465 g
- liver transaminases ALT and AST (in words) [7]: reductions in levels of these indicators of liver function
- body fat percentage (in words) [8]: resulted in increased body fat
- % Fat ([8]; BL (baseline)): 24%
- % Fat ([8]; Wk 3): 32%
- % Fat ([8]; Wk 5): 36%
- Fat pad weight [9]: 9 grams
- Kidney weight [9]: 4 grams
- Liver weight [9]: 21 grams
- Spleen weight [9]: 0.6 grams
